Reference: PubChem BioAssay (NCI)
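Tested at 5 concentrations; 48 h exposure; 96-well plates; endpoints linearly interpolated, else capped at highest concentration. GI50: concentration for 50% inhibition of growth. At the TGI there is no net growth.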

Tests used:
Test in all cases: inhibition of tumour cell growth, NCI panel, 48 h
HL-60(TB) leukemia = system: HL-60(TB) leukemia
HOP-62 NSCLC = system: HOP-62 NSCLC
HOP-92 NSCLC = system: HOP-92 NSCLC
K-562 leukemia = system: K-562 leukemia
NCI-H460 lung = system: NCI-H460 lung
SF-295 CNS = system: SF-295 CNS
SK-MEL-2 melanoma = system: SK-MEL-2 melanoma
SK-OV-3 ovarian = system: SK-OV-3 ovarian
SR leukemia = system: SR leukemia
SW-620 colon = system: SW-620 colon

Compound | GI50 (HL-60(TB) leukemia) | TGI (HL-60(TB) leukemia) | GI50 (HOP-62 NSCLC) | TGI (HOP-62 NSCLC) | GI50 (HOP-92 NSCLC) | TGI (HOP-92 NSCLC) | GI50 (K-562 leukemia) | TGI (K-562 leukemia) | GI50 (NCI-H460 lung) | TGI (NCI-H460 lung) | GI50 (SF-295 CNS) | TGI (SF-295 CNS) | GI50 (SK-MEL-2 melanoma) | TGI (SK-MEL-2 melanoma) | GI50 (SK-OV-3 ovarian) | TGI (SK-OV-3 ovarian) | GI50 (SR leukemia) | TGI (SR leukemia) | GI50 (SW-620 colon) | TGI (SW-620 colon)
COc1ccc(C(=O)c2cc(OC)c(OC)c(OC)c2)cc1/C=C/C(=O)c1ccc(F)cc1 | 4.8 µM | > 100 µM | 3.92 µM | 26.7 µM | 2.7 µM | 34.9 µM | 2.34 µM | > 100 µM | 16 µM | 52.7 µM | 7.21 µM | 37.3 µM | 9.89 µM | 38.2 µM | 17.9 µM | 73.1 µM | 2.04 µM | 95.7 µM | 2.53 µM | 7.44 µM
O=c1cc(NCC(O)CN2CCCC2)n(Cc2ccccc2)c(=O)n1Cc1ccccc1 (configuration not stated) | 7.81 µM | 30.3 µM | 18.7 µM | 54.4 µM | 14.9 µM | > 100 µM | 25.2 µM | 60.5 µM | 39.7 µM | > 100 µM | 46.6 µM | > 100 µM | > 100 µM | > 100 µM | > 100 µM | > 100 µM | 0.847 µM | 31 µM | 41.1 µM | > 100 µM
CCOC(=O)C1SC(=Nc2ccc(C)c(C)c2)N=C1C (configuration not stated) |  | > 100 µM |  | > 100 µM |  | > 100 µM |  | > 100 µM |  | > 100 µM |  | > 100 µM |  | > 100 µM |  | > 100 µM |  | > 100 µM |  | > 100 µM
COc1cc2ncnc(-n3ncc4cc(NC(=O)Nc5ccccc5)ccc43)c2cc1OC | 1.57 µM | 4.52 µM | 1.3 µM |  | 0.707 µM | 4.15 µM | 2.86 µM | 15.5 µM | 0.706 µM | 16.4 µM | 0.73 µM | 5.87 µM | 1.34 µM | 3.51 µM | 0.42 µM | 4.6 µM | 2.03 µM | 15.3 µM | 3.07 µM | 17.9 µM
C/C(=N\Nc1ccc(Cl)cn1)c1ccc2ccccc2n1 | 2.18 µM | 8.95 µM | 2.83 µM | > 100 µM | 2.25 µM | > 100 µM | 3.13 µM | > 100 µM | 2.92 µM | 19.6 µM | 3.06 µM | > 100 µM | 6.67 µM | > 100 µM | 3.73 µM | > 100 µM | 1.68 µM | 36.1 µM | 3.83 µM | > 100 µM
CCCN(CCC)C(=O)c1c([N+](=O)[O-])cc(C(F)(F)F)cc1[N+](=O)[O-] |  | 56.3 µM |  | > 100 µM |  | 93.3 µM |  | > 100 µM |  | > 100 µM |  | > 100 µM |  | > 100 µM |  | > 100 µM |  | > 100 µM |  | 84.3 µM
S=c1ssc(N2CCOCC2)c1Cl | 24.4 µM | 63.3 µM | > 100 µM | > 100 µM | 78.3 µM | > 100 µM | 26.3 µM | > 100 µM | 21.5 µM | 67 µM | 25.8 µM | > 100 µM | > 100 µM | > 100 µM | 28.1 µM | > 100 µM | 13.3 µM | 65.9 µM |  | 
